From patent US9180118B2, “Thiadiazolidinone derivatives” (University of Rochester, priority 2006, dated 2015)

Legend:
Assay in all cases: Kinase assay
Assay type in all cases: biochemical
PRKD1 (PKC mu) = PRKD1 (PKC mu) (Homo sapiens, UniProt Q15139)
Protocol: (§1) Kinase Assays: Single point and titration assays are performed using protocols (or essentially using protocols) know in the art for kinase activity profiling against a battery of kinase targets, including, for example, those specifically delineated herein. Such assays include, for example, those available from commercial sources, contract research laboratories, and the like.

PRKCA (PKC alpha) = PRKCA (PKC alpha) (Homo sapiens, UniProt P17252)
Protocol: as §1

MAPKAPK2 = MAPKAPK2 (Homo sapiens, UniProt P49137)
Protocol: as §1

ERBB2 (HER2) = ERBB2 (HER2) (Homo sapiens, UniProt P04626)
Chain of ERBB2 (HER2) (P04626 23-1255): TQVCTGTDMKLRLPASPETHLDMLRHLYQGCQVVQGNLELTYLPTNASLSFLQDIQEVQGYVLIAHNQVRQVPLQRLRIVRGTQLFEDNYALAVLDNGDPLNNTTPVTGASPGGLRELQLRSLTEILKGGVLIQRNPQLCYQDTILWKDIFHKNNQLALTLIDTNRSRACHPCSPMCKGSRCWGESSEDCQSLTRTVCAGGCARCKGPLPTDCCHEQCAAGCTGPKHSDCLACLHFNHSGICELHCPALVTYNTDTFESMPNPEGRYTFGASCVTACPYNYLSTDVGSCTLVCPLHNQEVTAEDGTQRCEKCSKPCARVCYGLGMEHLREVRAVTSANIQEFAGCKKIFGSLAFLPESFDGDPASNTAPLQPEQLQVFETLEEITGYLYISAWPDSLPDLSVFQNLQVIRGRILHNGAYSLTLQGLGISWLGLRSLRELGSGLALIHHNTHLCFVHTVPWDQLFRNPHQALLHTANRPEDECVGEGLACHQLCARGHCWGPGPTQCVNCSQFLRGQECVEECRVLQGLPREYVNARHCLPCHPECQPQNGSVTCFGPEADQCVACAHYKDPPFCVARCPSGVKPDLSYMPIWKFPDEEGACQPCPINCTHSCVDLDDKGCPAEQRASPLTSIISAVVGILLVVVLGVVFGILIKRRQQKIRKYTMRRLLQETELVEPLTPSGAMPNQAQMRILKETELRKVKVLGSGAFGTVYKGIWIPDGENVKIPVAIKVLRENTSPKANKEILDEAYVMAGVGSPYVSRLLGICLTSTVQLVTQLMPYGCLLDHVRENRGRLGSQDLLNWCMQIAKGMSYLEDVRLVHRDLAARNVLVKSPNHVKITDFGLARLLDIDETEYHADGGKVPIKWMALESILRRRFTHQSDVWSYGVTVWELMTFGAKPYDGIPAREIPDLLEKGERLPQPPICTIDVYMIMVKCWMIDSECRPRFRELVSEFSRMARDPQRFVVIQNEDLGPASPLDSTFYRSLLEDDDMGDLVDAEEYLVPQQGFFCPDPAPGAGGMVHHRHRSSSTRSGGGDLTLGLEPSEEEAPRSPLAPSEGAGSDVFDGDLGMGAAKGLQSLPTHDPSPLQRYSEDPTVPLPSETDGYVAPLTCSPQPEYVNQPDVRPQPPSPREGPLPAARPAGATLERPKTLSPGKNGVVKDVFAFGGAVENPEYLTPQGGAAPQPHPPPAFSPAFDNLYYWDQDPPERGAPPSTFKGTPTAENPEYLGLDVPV
Protocol: as §1

PDGFRB (PDGFR beta) = PDGFRB (PDGFR beta) (Homo sapiens, UniProt P09619)
Chain of PDGFRB (PDGFR beta) (P09619 33-1106): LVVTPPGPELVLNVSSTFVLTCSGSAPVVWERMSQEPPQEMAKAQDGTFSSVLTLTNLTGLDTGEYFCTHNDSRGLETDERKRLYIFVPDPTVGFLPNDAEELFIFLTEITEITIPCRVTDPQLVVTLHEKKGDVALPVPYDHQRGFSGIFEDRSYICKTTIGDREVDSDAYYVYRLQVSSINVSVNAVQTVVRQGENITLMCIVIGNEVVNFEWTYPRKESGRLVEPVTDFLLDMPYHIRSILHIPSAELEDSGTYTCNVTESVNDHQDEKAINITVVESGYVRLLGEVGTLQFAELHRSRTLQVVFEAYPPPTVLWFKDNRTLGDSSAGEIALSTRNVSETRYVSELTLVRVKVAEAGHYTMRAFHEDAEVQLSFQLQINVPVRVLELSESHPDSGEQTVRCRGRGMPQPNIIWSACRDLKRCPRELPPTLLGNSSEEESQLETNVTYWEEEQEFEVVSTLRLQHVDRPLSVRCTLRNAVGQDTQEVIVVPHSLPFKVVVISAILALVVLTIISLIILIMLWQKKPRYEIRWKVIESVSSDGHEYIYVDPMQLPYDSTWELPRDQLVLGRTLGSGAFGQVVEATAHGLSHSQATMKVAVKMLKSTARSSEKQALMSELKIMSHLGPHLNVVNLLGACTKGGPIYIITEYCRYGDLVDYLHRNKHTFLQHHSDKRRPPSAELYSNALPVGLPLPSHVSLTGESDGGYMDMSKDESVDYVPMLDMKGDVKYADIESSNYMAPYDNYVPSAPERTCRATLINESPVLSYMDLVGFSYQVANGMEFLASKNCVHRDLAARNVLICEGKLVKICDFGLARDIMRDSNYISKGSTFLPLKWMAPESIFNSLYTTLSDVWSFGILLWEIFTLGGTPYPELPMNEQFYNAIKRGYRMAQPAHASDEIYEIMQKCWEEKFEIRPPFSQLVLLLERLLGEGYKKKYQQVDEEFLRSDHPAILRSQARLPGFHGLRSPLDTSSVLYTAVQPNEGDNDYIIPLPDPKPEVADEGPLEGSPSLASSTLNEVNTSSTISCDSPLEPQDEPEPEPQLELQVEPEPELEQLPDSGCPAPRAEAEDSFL
Protocol: as §1

RPS6KA3 (RSK2) = RPS6KA3 (RSK2) (Homo sapiens, UniProt P51812)
Chain of RPS6KA3 (RSK2) (P51812 whole entry, species assumed): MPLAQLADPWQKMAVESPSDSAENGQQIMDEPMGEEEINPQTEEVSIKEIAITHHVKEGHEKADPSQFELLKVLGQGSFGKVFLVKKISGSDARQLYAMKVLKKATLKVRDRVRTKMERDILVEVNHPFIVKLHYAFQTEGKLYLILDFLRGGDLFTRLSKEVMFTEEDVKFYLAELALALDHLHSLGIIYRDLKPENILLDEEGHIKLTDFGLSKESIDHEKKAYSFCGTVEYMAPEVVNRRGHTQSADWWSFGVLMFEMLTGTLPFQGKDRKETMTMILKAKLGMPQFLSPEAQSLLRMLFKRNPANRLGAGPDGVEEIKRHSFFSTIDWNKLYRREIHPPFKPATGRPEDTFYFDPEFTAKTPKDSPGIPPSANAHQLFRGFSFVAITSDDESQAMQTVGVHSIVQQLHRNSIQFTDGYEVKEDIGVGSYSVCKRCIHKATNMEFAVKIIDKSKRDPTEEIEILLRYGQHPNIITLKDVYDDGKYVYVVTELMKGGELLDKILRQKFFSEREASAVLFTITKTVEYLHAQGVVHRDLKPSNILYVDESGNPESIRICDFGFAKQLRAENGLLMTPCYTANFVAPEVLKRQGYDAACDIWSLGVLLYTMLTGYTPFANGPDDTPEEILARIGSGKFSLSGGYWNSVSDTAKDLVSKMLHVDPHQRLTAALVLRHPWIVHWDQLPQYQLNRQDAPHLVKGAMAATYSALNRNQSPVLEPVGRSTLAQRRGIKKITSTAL
Protocol: as §1

CSNK1G2 (CK1 gamma 2) = CSNK1G2 (CK1 gamma 2) (Homo sapiens, UniProt P78368)
Protocol: as §1

EGFR (ErbB1) = EGFR (ErbB1) (Homo sapiens, UniProt P00533)
Protocol: as §1

PRKCE (PKC epsilon) = PRKCE (PKC epsilon) (Homo sapiens, UniProt Q02156)
Protocol: as §1

MAPK3 (ERK1) = MAPK3 (ERK1) (Homo sapiens, UniProt P27361)
Protocol: as §1

SYK = SYK (Homo sapiens, UniProt P43405)
Protocol: as §1

PRKACA (PKA) = PRKACA (PKA) (Homo sapiens, UniProt P17612)
Protocol: as §1

EPHA2 = EPHA2 (Homo sapiens, UniProt P29317)
Protocol: as §1

PRKCZ (PKC zeta) = PRKCZ (PKC zeta) (Homo sapiens, UniProt Q05513)
Protocol: as §1

BTK = BTK (Homo sapiens, UniProt Q06187)
Protocol: as §1

PRKCG (PKC gamma) = PRKCG (PKC gamma) (Homo sapiens, UniProt P05129)
Protocol: as §1

IGF1R = IGF1R (Homo sapiens, UniProt P08069)
Protocol: as §1

CDK1/cyclin B = CDK1/cyclin B (Homo sapiens, UniProt P06493)
Protocol: as §1

RET = RET (Homo sapiens, UniProt P07949)
Protocol: as §1

KIT = KIT (Homo sapiens, UniProt P10721)
Chain of KIT (P10721 26-976): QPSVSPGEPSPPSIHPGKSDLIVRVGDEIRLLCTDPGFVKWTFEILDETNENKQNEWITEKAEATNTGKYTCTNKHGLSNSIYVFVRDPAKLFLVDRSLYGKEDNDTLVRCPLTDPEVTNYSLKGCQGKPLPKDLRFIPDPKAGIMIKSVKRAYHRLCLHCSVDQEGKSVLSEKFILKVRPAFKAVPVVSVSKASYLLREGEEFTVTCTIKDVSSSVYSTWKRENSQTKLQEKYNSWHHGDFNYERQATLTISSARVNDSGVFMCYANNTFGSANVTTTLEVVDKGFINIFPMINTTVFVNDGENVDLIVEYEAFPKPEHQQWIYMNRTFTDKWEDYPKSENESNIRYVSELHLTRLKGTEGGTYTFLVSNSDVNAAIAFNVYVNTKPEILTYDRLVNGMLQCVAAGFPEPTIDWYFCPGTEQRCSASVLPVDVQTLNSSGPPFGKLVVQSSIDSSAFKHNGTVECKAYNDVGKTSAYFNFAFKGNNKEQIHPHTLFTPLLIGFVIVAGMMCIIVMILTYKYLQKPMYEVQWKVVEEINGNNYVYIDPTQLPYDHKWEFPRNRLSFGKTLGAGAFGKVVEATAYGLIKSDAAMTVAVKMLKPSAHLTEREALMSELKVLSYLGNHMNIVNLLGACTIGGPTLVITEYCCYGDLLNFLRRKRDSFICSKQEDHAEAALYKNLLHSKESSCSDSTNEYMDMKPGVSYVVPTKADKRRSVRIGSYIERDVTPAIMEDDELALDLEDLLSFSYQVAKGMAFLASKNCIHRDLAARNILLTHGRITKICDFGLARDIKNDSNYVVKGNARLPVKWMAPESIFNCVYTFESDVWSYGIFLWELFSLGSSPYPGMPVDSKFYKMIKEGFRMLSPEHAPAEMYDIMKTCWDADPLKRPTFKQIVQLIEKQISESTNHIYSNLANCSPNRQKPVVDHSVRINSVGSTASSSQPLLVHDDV
Protocol: as §1

MAP2K1 (MEK1) = MAP2K1 (MEK1) (Homo sapiens, UniProt Q02750)
Protocol: as §1

PRKCH (PKC eta) = PRKCH (PKC eta) (Homo sapiens, UniProt P24723)
Protocol: as §1

IRAK4 = IRAK4 (Homo sapiens, UniProt Q9NWZ3)
Protocol: as §1

INSR = INSR (Homo sapiens, UniProt P06213)
Protocol: as §1

DYRK3 = DYRK3 (Homo sapiens, UniProt O43781)
Protocol: as §1

NTRK1 (TRKA) = NTRK1 (TRKA) (Homo sapiens, UniProt P04629)
Protocol: as §1

PIM1 = PIM1 (Homo sapiens, UniProt P11309)
Protocol: as §1

CHEK1 (CHK1) = CHEK1 (CHK1) (Homo sapiens, UniProt O14757)
Protocol: as §1

PHKG2 = PHKG2 (Homo sapiens, UniProt P15735)
Protocol: as §1

KDR (VEGFR2) = KDR (VEGFR2) (Homo sapiens, UniProt P35968)
Protocol: as §1

MAP4K4 (HGK) = MAP4K4 (HGK) (Homo sapiens, UniProt O95819)
Protocol: as §1

ROCK1 = ROCK1 (Homo sapiens, UniProt Q13464)
Protocol: as §1

FGFR1 = FGFR1 (Homo sapiens, UniProt P11362)
Protocol: as §1

AKT1 (PKB alpha) = AKT1 (PKB alpha) (Homo sapiens, UniProt P31749)
Protocol: as §1

MET (cMet) = MET (cMet) (Homo sapiens, UniProt P08581)
Protocol: as §1

PRKCQ (PKC theta) = PRKCQ (PKC theta) (Homo sapiens, UniProt Q04759)
Protocol: as §1

LCK = LCK (Homo sapiens, UniProt P06239)
Protocol: as §1

MAPK14 (p38 alpha) = MAPK14 (p38 alpha) (Homo sapiens, UniProt Q16539)
Protocol: as §1

JAK3 = JAK3 (Homo sapiens, UniProt P52333)
Protocol: as §1

PRKCN (PKD3) = PRKCN (PKD3) (Homo sapiens, UniProt O94806)
Protocol: as §1

Chain of PRKD1 (PKC mu) (Q15139 whole entry): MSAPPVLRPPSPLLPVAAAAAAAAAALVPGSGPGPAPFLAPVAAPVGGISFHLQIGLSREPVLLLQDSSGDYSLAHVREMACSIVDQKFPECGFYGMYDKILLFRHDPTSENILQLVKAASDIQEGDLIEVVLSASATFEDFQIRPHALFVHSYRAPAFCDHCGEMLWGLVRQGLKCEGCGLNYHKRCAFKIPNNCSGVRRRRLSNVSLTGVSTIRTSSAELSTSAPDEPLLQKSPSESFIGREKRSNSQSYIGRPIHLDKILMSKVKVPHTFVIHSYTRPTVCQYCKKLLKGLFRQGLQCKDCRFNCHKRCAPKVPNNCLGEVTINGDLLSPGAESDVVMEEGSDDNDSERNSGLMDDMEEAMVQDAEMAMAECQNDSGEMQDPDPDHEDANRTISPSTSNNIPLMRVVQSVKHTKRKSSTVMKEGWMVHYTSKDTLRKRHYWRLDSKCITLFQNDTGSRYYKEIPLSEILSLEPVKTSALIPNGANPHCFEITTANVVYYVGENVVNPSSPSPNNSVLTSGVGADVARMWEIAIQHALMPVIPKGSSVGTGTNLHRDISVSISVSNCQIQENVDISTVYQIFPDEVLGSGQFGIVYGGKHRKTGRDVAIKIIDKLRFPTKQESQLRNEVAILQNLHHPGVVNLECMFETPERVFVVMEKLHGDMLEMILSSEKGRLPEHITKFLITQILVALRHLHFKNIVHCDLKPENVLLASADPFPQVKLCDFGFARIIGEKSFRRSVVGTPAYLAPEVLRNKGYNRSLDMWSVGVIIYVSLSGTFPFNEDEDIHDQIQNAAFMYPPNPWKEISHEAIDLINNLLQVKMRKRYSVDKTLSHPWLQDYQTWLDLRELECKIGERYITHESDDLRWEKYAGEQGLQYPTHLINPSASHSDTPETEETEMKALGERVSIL

With `Cn1sc(=O)n(Cc2ccccc2)c1=O` [TDZD-8, 4-benzyl-2-methyl-1,2,4-thiadiazolidine-3,5-dione] the inhibition at 20 µM (PRKD1 (PKC mu)) was 97%, the inhibition at 20 µM (PRKCA (PKC alpha)) was 102% and the inhibition at 20 µM (MAPKAPK2) was 99%. The inhibition at 20 µM (ERBB2 (HER2)) was 12%, the inhibition at 20 µM (PDGFRB (PDGFR beta)) was -4% and the “% Inhibition mean” value (PDGFRB (PDGFR beta); TDZD-8 20 μM) was “little to no inhibition”. It also gave an inhibition at 20 µM (RPS6KA3 (RSK2)) of 101%, an inhibition at 20 µM (CSNK1G2 (CK1 gamma 2)) of 22% and an inhibition at 20 µM (EGFR (ErbB1)) of 1%. The inhibition at 20 µM (PRKCE (PKC epsilon)) was 99%, the inhibition at 20 µM (MAPK3 (ERK1)) was 61% and the inhibition at 20 µM (SYK) was 99%. The inhibition at 20 µM (PRKACA (PKA)) was 18%, the inhibition at 20 µM (EPHA2) was 3% and the inhibition at 20 µM (PRKCZ (PKC zeta)) was 100%. The inhibition at 20 µM (BTK) was 72%, the inhibition at 20 µM (PRKCG (PKC gamma)) was 103% and the inhibition at 20 µM (IGF1R) was -2%. It also gave an inhibition at 20 µM (CDK1/cyclin B) of 15%, an inhibition at 20 µM (RET) of 34% and an inhibition at 20 µM (KIT) of -6%. The “% Inhibition mean” value (KIT; TDZD-8 20 μM) was “little to no inhibition”, the inhibition at 20 µM (MAP2K1 (MEK1)) was 80% and the inhibition at 20 µM (PRKCH (PKC eta)) was 104%. The inhibition at 20 µM (IRAK4) was 8%, the inhibition at 20 µM (INSR) was 9% and the inhibition at 20 µM (DYRK3) was 85%. The inhibition at 20 µM (NTRK1 (TRKA)) was -9%, the inhibition at 20 µM (PIM1) was 95% and the inhibition at 20 µM (CHEK1 (CHK1)) was 87%. For the same compound, the inhibition at 20 µM (PHKG2) was 80%, the inhibition at 20 µM (KDR (VEGFR2)) was 100% and the inhibition at 20 µM (MAP4K4 (HGK)) was 99%. The inhibition at 20 µM (ROCK1) was 113%, the inhibition at 20 µM (FGFR1) was 1% and the inhibition at 20 µM (AKT1 (PKB alpha)) was 102%. For the same compound, the inhibition at 20 µM (MET (cMet)) was 90%, the inhibition at 20 µM (PRKCQ (PKC theta)) was 101% and the inhibition at 20 µM (LCK) was -9%. It also gave an inhibition at 20 µM (MAPK14 (p38 alpha)) of 97%, an inhibition at 20 µM (JAK3) of -1% and an inhibition at 20 µM (PRKCN (PKD3)) of 94%.
